Experimental data published in patent US8455435B2, “Remedies for ischemia” (Ludwig-Maximilians-Universitat Munchen, priority 2006, dated 2013).

Legend:
CD31 positive vessels = experiment: Neovascularization (CD31 positive vessels) in granulation tissue after MI, PTH treatment; assay type: in vivo, mice; settings: infarct and borderzone after PTH treatment
Excerpt: C) Representative staining of CD31 positive vessels (left: 100×, right: 400×) in the granulation tissue harboring the borderzone of PTH treated (upper row) and saline treated animals (lower row). […] All sections nuclei (blue) were counterstained with hematoxyline. *p<0.05 saline vs. PTH.

myocardial infarction = experiment: Survival after myocardial infarction (LAD occlusion), PTH treatment; assay type: in vivo, C57BL/6 mice; settings: 4 weeks after myocardial infarction, PTH 80 μg/kg/d s.c.
Protocol: Myocardial infarction was induced in male C57BL/6 mice 8-12 weeks of age by surgical occlusion of the left anterior descending artery (LAD) through a left anterolateral approach. Mice were anesthetized by intraperitoneal injection of a mixture of 100 mg/kg ketamine (Sigma Chemical Co., St. Louis, Mo.) and 5 mg/kg Xylazine (Sigma), intubated and artificially ventilated by a mouse ventilator (HUGO SACHS, March, Germany) with 200 strokes/min and 200 μl/stroke. Animal care and all experimental procedures were performed in strict accordance to the German and National Institutes of Health animal legislation guidelines and were approved by the local animal care and use committees.
After occlusion of the LAD, mice were divided into the following groups 1) subcutaneous administration of saline daily for 5 days, sacrificed at day 6 (n=10) and day 30 (n=15); 2) administration of rat PTH (1-34) daily for 5 and 14 consecutive days (80 μg/kg/d s.c., Bachem), sacrificed at day 6 (n=9) and day 30 (n=15); 3) sham operated animals sacrificed at day 30 (n=5), and not operated control animals receiving saline (n=6) sacrificed at day 6 and at day 30. All animals received BrdU (50 μg/kg/d) for 5 consecutive days. […]
Results were expressed as mean±S.E.M. For statistical analyses the unpaired Student's t-test was used. Mortality was analyzed by the Kaplan-Meier-method. […]

[1] = tested on: CD45 positive stem cells in peripheral blood; experiment: Mobilization of bone marrow derived cells by PTH(1-34), flow cytometry of peripheral blood; assay type: in vivo, C57BL/6 mice
Protocol: 8-12 week old C57BL/6 mice (n=5) were either treated with PTH (80 μg/kg/d) or saline daily for 5 or 14 consecutive days. At day 6 and day 14, 1 ml of peripheral blood was harvested from each mouse by aspirating the carotid artery. To define the number of leukocytes, heparinized blood samples were analyzed using a conventional hematological cell analyzer (Sysmex XE 2100). Mononuclear cells were separated by density-gradient centrifugation using Histopaque solution (1.077 g/ml, Sigma Chemicals), purified and resuspended in phosphate-buffered saline (PBS) containing 1% bovine serum albumin. Cells were incubated for 40 minutes in the dark at 4° C. with the following fluorescein-isothiocyanate (FITC), phycoerythrin (PE), and peridinin-chlorophyll-protein (PerCP) conjugated monoclonal antibodies: CD45− PerCP, CD34-FITC, CD31-PE, Sca-1-PE and c-kit-PE (all from BD Pharmingen). Matching isotype antibodies (BD Pharmingen) served as controls. Cells were analyzed by 3-color flow cytometry using a Coulter® Epics® XL-MCL™ flow cytometer (Beckman Coulter). Each analysis included 20000 events.

VEGF-A and VEGF-R1 = experiment: VEGF-A/VEGF-R1 expression in infarct and borderzone after MI, PTH treatment; assay type: in vivo, mice
Excerpt: FIGS. 18A-18B: Immunohistochemical staining of VEGF-A protein in the granulation tissue at the infarct borderzone and RT-PCR analysis of VEGF-A/VEGF-R1 expression • A) Representative staining of VEGF-A protein (brown) in the granulation tissue of sham operated (left), saline (middle) and PTH treated hearts (right). VEGF-A protein is mainly localized on infiltrated cells in the granulation tissue at the borderzone. • B) Bar graphs representing the relative fold increase of VEGF-A (left) and VEGF-1 receptor (right) mRNA expression of saline treated (n=3, striped bars) and of PTH treated myocardial tissue (n=3-5, black bars) normalized to non infarcted control mice (n=3) 48 hours after myocardial infarction. *p<0.05.

[2] = tested on: CD45/Sca-1 and CD45/CD34 positive stem cells; experiment: PTH induced migration of CD45+ stem cells to the ischemic heart; assay type: in vivo, mice; settings: 48 hours after myocardial ischemia
[3] = tested on: BrdU and Ki67 positive cells; experiment: Immunohistochemistry of cell proliferation (BrdU, Ki67) after MI, PTH treatment; assay type: in vivo, C57BL/6 mice
Protocol: After occlusion of the LAD, mice were divided into the following groups 1) subcutaneous administration of saline daily for 5 days, sacrificed at day 6 (n=10) and day 30 (n=15); 2) administration of rat PTH (1-34) daily for 5 and 14 consecutive days (80 μg/kg/d s.c., Bachem), sacrificed at day 6 (n=9) and day 30 (n=15); 3) sham operated animals sacrificed at day 30 (n=5), and not operated control animals receiving saline (n=6) sacrificed at day 6 and at day 30. All animals received BrdU ([…]) for 5 consecutive days. BrdU and cytokine treatment were started 12-24 hours after LAD occlusion.
At day 6 (n=10) and day 30 (n=10), hearts were excised. After fixation in 4% phosphate buffered formalin the hearts were cut transversally into 2 mm thick slices and embedded in paraffin. 4 μm thick sections were cut and mounted on positively charged glass slides. Standard histological procedures (hematoxilin/eosin and Masson trichrome) and immunostaining (see below) were performed.
For immunostaining mounted tissue sections were deparaffinized by rinsing 3×5 minutes in xylene followed by 2×5 minutes 100%, 2×5 minutes 96%, and 2×5 minutes 70% ethanol rinses. Endogenous peroxidases were quenched in 7.5% H2O2 in distilled water for 10 minutes. After rinsing in distilled water for 10 minutes and 2×5 minutes in TRIS-Buffer, pH 7.5, the slides were incubated at room temperature for 60 minutes with following primary antibodies: CD45 (rat anti-mouse, BD Pharmingen), ICAM-1 (goat anti-mouse, R&D), CD34 (rat anti-mouse, Linaris), Ki67 (goat anti-mouse, Santa Cruz) or BrdU (mouse monoclonal anti-BrdU, BD Pharmingen). Pre-treatment was performed for 30 minutes (microwave 750 W) using TRS 6 (Dako) for CD45, Glykol (biologo) for CD34, Retrievagen A (BD Pharmingen) for BrdU, and citrate buffer (10 mM, pH 6.0) for Ki67.
For detection of the immunoreaction Avidin-Biotinylated enzyme Comlex-Rat IgG, Avidin-Biotinylated enzyme Comlex-Goat IgG (both from Vector) or rabbit anti-goat IgG (DAKO) were used. Aminoethylcarbazol was used as chromogen (incubation 10 minutes). Thereafter, the slides were rinsed in running water and counterstained with hematoxilin Gill's Formula (Vector). Cover slides were mounted with Kaiser's glycerol gelatine. Doublestaining was performed for CD31 and Ki67 using an Avidin-Biotinylated enzyme Comlex-Goat IgG detection system and diaminobenzidine as chromogen and the APAAP-Rat system and chromogen red (all from Dako), respectively.
Quantitative assessments: a) granulation tissue: the number of BrdU and Ki76 positive nuclei were related to the total number of nuclei quantified in the granulation tissue. b) arterioles: only arterioles with high proliferative activity were enclosed.

With rat PTH (1-34) the angiogenesis (CD31 positive vessels) was “significantly increased”, the survival rate (myocardial infarction) was 60% and the survival rate (myocardial infarction; listed as rPTH (1-34)) was 60.0%. The “increase of CD45+/CD34+ cells” value ([1]; day 6) was 4.4 fold, the “increase of CD45+/CD34+/CD31+ cells” value ([1]; day 6) was 2.9 fold and the “increase of CD45+/CD34+/Sca-1+ cells” value ([1]; day 6) was 2.9 fold. For the same substance, the “increase of CD45+/CD34+/c-kit+ cells” value ([1]; day 6) was 6.1 fold, the “increase of CD45+/CD34+ cells” value ([1]; day 14) was 6.0 fold and the “increase of CD45+/CD34+/CD31+ cells” value ([1]; day 14) was 3.1 fold. For the same substance, the “increase of CD45+/CD34+/Sca-1+ cells” value ([1]; day 14) was 2.9 fold, the “increase of CD45+/CD34+/c-kit+ cells” value ([1]; day 14) was 9.0 fold and the “expression of VEGF-A and VEGF-R1” value (VEGF-A and VEGF-R1) was “pronounced expression”. The “migration of CD45/Sca-1 and CD45/CD34 positive stem cells to the heart” value [2] was “enhanced migration”, the “BrdU positive cells within the granulation tissue” value ([3]; 6 days after MI) was 72.1±2.4% and the “Ki67 and BrdU positive cells within the remote area” value ([3]; 6 days after MI) was “less than 1%”. For the same substance, the “Ki67 positive cells within the granulation tissue” value ([3]; 6 days after MI) was 34.8±4.8%, the “Ki67 positive endothelial cells associated with CD31 positive arterioles” value ([3]; compared to saline treated animals) was “high numbers” and the “BrdU positive cells in the periinfarct region” value ([3]; day 30) was 99.1±25.0 /mm^2.
